How the values were obtained:
[1] = Accelerated stability study of bupropion HBr, closed bottles, 40° C./75% RH, 3 and 6 months, HPLC; type: physicochemical; conditions: 40° C., R.H. 75%; for Chromatographic purity B) (HPLC) 4) 2-N-(tert-Butyl)-aminopropiophenone / Chromatographic purity B) (HPLC) 5) single unknown impurity (each): LOQ 0.02%, LOD 0.002%; for Chromatographic purity A) (HPLC) 1) 3′-Chloropropiophenone / Chromatographic purity A) (HPLC) 3) 3′-Chlorobenzoic acid / Chromatographic purity A) (HPLC) 2) 3′-Chloro-2-bromopropiophenone: LOQ 0.05%; for Chromatographic purity A) (HPLC) 1) 3′-Chloropropiophenone / Chromatographic purity A) (HPLC) 3) 3′-Chlorobenzoic acid: LOD 0.01%; for Chromatographic purity A) (HPLC) 2) 3′-Chloro-2-bromopropiophenone: LOD 0.04%
Procedure: The samples were prepared in closed bottles and placed in the stability chamber. HPLC analysis was conducted on the samples prior to placing them in the stability chamber (time 0), and after 3 months and 6 months. The amounts of the main degradation products present at time 0 were compared with those amounts present after 3 months and 6 months. […] For each sample tested, at each time period, two different HPLC assays were run. The first assay labelled chromatographic purity A, measured the percentage of three impurities 3′chloropropiophenone, 3′-Chloro-2-bromopropiophenone and 3′-Chlorobenzoic acid. The second assay, labelled chromatographic purity B, measured the percentage of 2-N-(tert-Butyl)-aminopropiophenone, a single unknown impurity and the total unknown impurities.

[2] = Shelf life stability program of bupropion HBr, 25° C./60% RH, 3 and 6 months, HPLC; type: physicochemical; conditions: Batch D00894, 25° C., R.H. 60%; for Chromatographic purity B) (HPLC) 4) 2-N-(tert-Butyl)-aminopropiophenone / Chromatographic purity B) (HPLC) 5) single unknown impurity (each): LOQ 0.02%, LOD 0.002%; for Chromatographic purity A) (HPLC) 1) 3′-Chloropropiophenone / Chromatographic purity A) (HPLC) 3) 3′-Chlorobenzoic acid / Chromatographic purity A) (HPLC) 2) 3′-Chloro-2-bromopropiophenone: LOQ 0.05%; for Chromatographic purity A) (HPLC) 1) 3′-Chloropropiophenone / Chromatographic purity A) (HPLC) 3) 3′-Chlorobenzoic acid: LOD 0.01%; for Chromatographic purity A) (HPLC) 2) 3′-Chloro-2-bromopropiophenone: LOD 0.04%
Procedure: The stability of bupropion HBr was studied over a longer term under conditions meant to approximate standard storage or shelf conditions. Samples were prepared in closed containers and subjected to long-term storage at 25° C.+2° C. and 60%+5% RH in a stability chamber. The samples were analyzed by HPLC prior to being placed in the stability chamber (time 0) and after 3 months and 6 months. The amounts of the main degradation products present at time 0 were compared with the amounts present at 3 months and 6 months. As shown in Table 77-79 three different batches of bupropion HBr were tested. As in Example 10 each sample was tested under two HPLC assay conditions to identify 6 impurities or groups of impurities as described in Example 10.

## Br.CC(NC(C)(C)C)C(=O)c1cccc(Cl)c1 (stereo not drawn) [Bupropion•HBr]
[1]; Batch D00894, 3 month
  Assay (HPLC): 99.6 % on d.b.
  Chromatographic purity (HPLC: A + B) Total impurities: 0.1%
  Chromatographic purity B) (HPLC) 6) total unknown impurities: 6) 0.06%
  Description (white or almost white crystalline powder): conform
  Identification IR, HPLC: positive
  Water content (K.F.): 0.07%
  Chromatographic purity B) (HPLC) 4) 2-N-(tert-Butyl)-aminopropiophenone: 4) 0.03%
  Chromatographic purity B) (HPLC) 5) single unknown impurity (each): 5) 0.04%
  Chromatographic purity A) (HPLC) 1) 3′-Chloropropiophenone: 1) n.q.
  Chromatographic purity A) (HPLC) 3) 3′-Chlorobenzoic acid: 3) n.q.
  Chromatographic purity A) (HPLC) 2) 3′-Chloro-2-bromopropiophenone: 2) n.d.
[1]; Batch D00894, 6 months
  Assay (HPLC): 99.7 % on d.b.
  Chromatographic purity (HPLC: A + B) Total impurities: 0.1%
  Chromatographic purity B) (HPLC) 6) total unknown impurities: 6) 0.02%
  Description (white or almost white crystalline powder): conform
  Identification IR, HPLC: positive
  Water content (K.F.): 0.08%
  Chromatographic purity B) (HPLC) 4) 2-N-(tert-Butyl)-aminopropiophenone: 4) 0.04%
  Chromatographic purity B) (HPLC) 5) single unknown impurity (each): 5) n.q.
  Chromatographic purity A) (HPLC) 1) 3′-Chloropropiophenone: 1) 0.05%
  Chromatographic purity A) (HPLC) 3) 3′-Chlorobenzoic acid: 3) n.q.
  Chromatographic purity A) (HPLC) 2) 3′-Chloro-2-bromopropiophenone: 2) n.d.
[1]; Batch D00894, time 0
  Assay (HPLC): 99.6 % on d.b.
  Chromatographic purity (HPLC: A + B) Total impurities: 0.1%
  Chromatographic purity B) (HPLC) 6) total unknown impurities: 6) 0.04%
  Description (white or almost white crystalline powder): conform
  Identification IR, HPLC: positive
  Water content (K.F.): 0.05%
  Chromatographic purity B) (HPLC) 4) 2-N-(tert-Butyl)-aminopropiophenone: 4) 0.04%
  Chromatographic purity B) (HPLC) 5) single unknown impurity (each): 5) 0.04%
  Chromatographic purity A) (HPLC) 1) 3′-Chloropropiophenone: 1) n.d.
  Chromatographic purity A) (HPLC) 3) 3′-Chlorobenzoic acid: 3) n.q.
  Chromatographic purity A) (HPLC) 2) 3′-Chloro-2-bromopropiophenone: 2) n.d.
[1]; Batch D00895, 3 month
  Assay (HPLC): 100.7 % on d.b.
  Chromatographic purity (HPLC: A + B) Total impurities: 0.1%
  Chromatographic purity B) (HPLC) 6) total unknown impurities: 6) 0.05%
  Description (white or almost white crystalline powder): conform
  Identification IR, HPLC: positive
  Water content (K.F.): 0.07%
  Chromatographic purity B) (HPLC) 4) 2-N-(tert-Butyl)-aminopropiophenone: 4) 0.03%
  Chromatographic purity B) (HPLC) 5) single unknown impurity (each): 5) 0.04%
  Chromatographic purity A) (HPLC) 1) 3′-Chloropropiophenone: 1) n.q.
  Chromatographic purity A) (HPLC) 3) 3′-Chlorobenzoic acid: 3) 0.05%
  Chromatographic purity A) (HPLC) 2) 3′-Chloro-2-bromopropiophenone: 2) n.d.
[1]; Batch D00895, 6 months
  Assay (HPLC): 99.7 % on d.b.
  Chromatographic purity (HPLC: A + B) Total impurities: 0.1%
  Chromatographic purity B) (HPLC) 6) total unknown impurities: 6) 0.02%
  Description (white or almost white crystalline powder): conform
  Identification IR, HPLC: positive
  Water content (K.F.): 0.07%
  Chromatographic purity B) (HPLC) 4) 2-N-(tert-Butyl)-aminopropiophenone: 4) 0.04%
  Chromatographic purity B) (HPLC) 5) single unknown impurity (each): 5) n.q.
  Chromatographic purity A) (HPLC) 1) 3′-Chloropropiophenone: 1) 0.05%
  Chromatographic purity A) (HPLC) 3) 3′-Chlorobenzoic acid: 3) n.q.
  Chromatographic purity A) (HPLC) 2) 3′-Chloro-2-bromopropiophenone: 2) n.d.
[1]; Batch D00895, time 0
  Assay (HPLC): 99.2 % on d.b.
  Chromatographic purity (HPLC: A + B) Total impurities: 0.1%
  Chromatographic purity B) (HPLC) 6) total unknown impurities: 6) 0.04%
  Description (white or almost white crystalline powder): conform
  Identification IR, HPLC: positive
  Water content (K.F.): 0.04%
  Chromatographic purity B) (HPLC) 4) 2-N-(tert-Butyl)-aminopropiophenone: 4) 0.04%
  Chromatographic purity B) (HPLC) 5) single unknown impurity (each): 5) 0.04%
  Chromatographic purity A) (HPLC) 1) 3′-Chloropropiophenone: 1) n.d.
  Chromatographic purity A) (HPLC) 3) 3′-Chlorobenzoic acid: 3) n.q.
  Chromatographic purity A) (HPLC) 2) 3′-Chloro-2-bromopropiophenone: 2) n.d.
[1]; Batch D00896, 3 month
  Assay (HPLC): 100.0 % on d.b.
  Chromatographic purity (HPLC: A + B) Total impurities: 0.1%
  Chromatographic purity B) (HPLC) 6) total unknown impurities: 6) 0.05%
  Description (white or almost white crystalline powder): conform
  Identification IR, HPLC: positive
  Water content (K.F.): 0.11%
  Chromatographic purity B) (HPLC) 4) 2-N-(tert-Butyl)-aminopropiophenone: 4) 0.03%
  Chromatographic purity B) (HPLC) 5) single unknown impurity (each): 5) 0.04%
  Chromatographic purity A) (HPLC) 1) 3′-Chloropropiophenone: 1) n.q.
  Chromatographic purity A) (HPLC) 3) 3′-Chlorobenzoic acid: 3) n.q.
  Chromatographic purity A) (HPLC) 2) 3′-Chloro-2-bromopropiophenone: 2) n.d.
[1]; Batch D00896, 6 months
  Assay (HPLC): 100.4 % on d.b.
  Chromatographic purity (HPLC: A + B) Total impurities: 0.1%
  Chromatographic purity B) (HPLC) 6) total unknown impurities: 6) n.q.
  Description (white or almost white crystalline powder): conform
  Identification IR, HPLC: positive
  Water content (K.F.): 0.04%
  Chromatographic purity B) (HPLC) 4) 2-N-(tert-Butyl)-aminopropiophenone: 4) 0.04%
  Chromatographic purity B) (HPLC) 5) single unknown impurity (each): 5) n.q.
  Chromatographic purity A) (HPLC) 1) 3′-Chloropropiophenone: 1) 0.05%
  Chromatographic purity A) (HPLC) 3) 3′-Chlorobenzoic acid: 3) n.q.
  Chromatographic purity A) (HPLC) 2) 3′-Chloro-2-bromopropiophenone: 2) n.d.
[1]; Batch D00896, Time 0
  Assay (HPLC): 99.3 % on d.b.
  Chromatographic purity (HPLC: A + B) Total impurities: 0.1%
  Chromatographic purity B) (HPLC) 6) total unknown impurities: 6) 0.05%
  Description (white or almost white crystalline powder): conform
  Identification IR, HPLC: positive
  Water content (K.F.): 0.06%
  Chromatographic purity B) (HPLC) 4) 2-N-(tert-Butyl)-aminopropiophenone: 4) 0.04%
  Chromatographic purity B) (HPLC) 5) single unknown impurity (each): 5) 0.05%
  Chromatographic purity A) (HPLC) 1) 3′-Chloropropiophenone: 1) n.d.
  Chromatographic purity A) (HPLC) 3) 3′-Chlorobenzoic acid: 3) n.q.
  Chromatographic purity A) (HPLC) 2) 3′-Chloro-2-bromopropiophenone: 2) n.d.
[2]; 3 months
  Assay (HPLC): 99.4 % on d.b.
  Chromatographic purity (HPLC: A + B) Total impurities: 0.1%
  Chromatographic purity B) (HPLC) 6) total unknown impurities: 6) 0.05%
  Description (white or almost white crystalline powder): conform
  Identification IR, HPLC: positive
  Water content (K.F.): 0.05%
  Chromatographic purity B) (HPLC) 4) 2-N-(tert-Butyl)-aminopropiophenone: 4) 0.03%
  Chromatographic purity B) (HPLC) 5) single unknown impurity (each): 5) 0.04%
  Chromatographic purity A) (HPLC) 1) 3′-Chloropropiophenone: 1) n.q.
  Chromatographic purity A) (HPLC) 3) 3′-Chlorobenzoic acid: 3) n.q.
  Chromatographic purity A) (HPLC) 2) 3′-Chloro-2-bromopropiophenone: 2) n.d.
[2]; 6 months
  Assay (HPLC): 100.2 % on d.b.
  Chromatographic purity (HPLC: A + B) Total impurities: 0.1%
  Chromatographic purity B) (HPLC) 6) total unknown impurities: 6) 0.02%
  Description (white or almost white crystalline powder): conform
  Identification IR, HPLC: positive
  Water content (K.F.): 0.06%
  Chromatographic purity B) (HPLC) 4) 2-N-(tert-Butyl)-aminopropiophenone: 4) 0.05%
  Chromatographic purity B) (HPLC) 5) single unknown impurity (each): 5) n.q.
  Chromatographic purity A) (HPLC) 1) 3′-Chloropropiophenone: 1) 0.05%
  Chromatographic purity A) (HPLC) 3) 3′-Chlorobenzoic acid: 3) n.q.
  Chromatographic purity A) (HPLC) 2) 3′-Chloro-2-bromopropiophenone: 2) n.d.
[2]; 9 months
  Assay (HPLC): 99.5 % on d.b.
  Chromatographic purity (HPLC: A + B) Total impurities: n.q.
  Chromatographic purity B) (HPLC) 6) total unknown impurities: 6) n.q.
  Description (white or almost white crystalline powder): conform
  Identification IR, HPLC: positive
  Water content (K.F.): 0.05%
  Chromatographic purity B) (HPLC) 4) 2-N-(tert-Butyl)-aminopropiophenone: 4) n.d.
  Chromatographic purity B) (HPLC) 5) single unknown impurity (each): 5) n.q.
  Chromatographic purity A) (HPLC) 1) 3′-Chloropropiophenone: 1) n.q.
  Chromatographic purity A) (HPLC) 3) 3′-Chlorobenzoic acid: 3) n.q.
  Chromatographic purity A) (HPLC) 2) 3′-Chloro-2-bromopropiophenone: 2) n.d.

Source: patent US7884136B2, “Modified-release formulations of a bupropion salt” (Biovail Laboratories International S.R.L., priority 2005, dated 2011)
